The record followed here is patent publication US10618918B2, “Substituted boronic acids as antimicrobials” (priority 2015, dated 2020).

The target in assay [1] is purified class A, C and D enzymes (β-lactamases) (Escherichia coli, UniProt Q9L5C7). The assay is described as follows: biochemical. The settings on record: purified CTX-M-14; nitrocefin (NCF) as reporter substrate. In kind it is biochemical.
Assay [2] deals with purified class A, C and D enzymes (β-lactamases) (Klebsiella pneumoniae, UniProt Q6XEC0). The assay is described as follows: biochemical. In kind it is biochemical. The settings on record: purified OXA-48; nitrocefin (NCF) as reporter substrate.
For assay [3], the target named is purified class A, C and D enzymes (β-lactamases) (Klebsiella pneumoniae, UniProt Q9F663). The assay is described as follows: biochemical. In kind it is biochemical. The settings on record: purified KPC-2; nitrocefin (NCF) as reporter substrate.
Assay [4] concerns the target T1, purified class A, C and D enzymes (β-lactamases) (Acinetobacter baumannii, UniProt Q9L4P2).
T1 construct: rows headed: Ki (OXA-23, NCF), uM; other: purified OXA-23; nitrocefin (NCF) as reporter substrate
The experiment in a line: biochemical. In kind it is biochemical. The settings on record: purified OXA-23; nitrocefin (NCF) as reporter substrate.

The target in assay [5] is T2, purified class A, C and D enzymes (β-lactamases) (Pseudomonas aeruginosa, UniProt P24735).
T2 construct: rows headed: Ki (Pa-AmpC, NCF), uM; other: purified Pa-AmpC; nitrocefin (NCF) as reporter substrate
The assay is described as follows: biochemical. It is filed as biochemical.

For assay [6], the target named is purified class A, C and D enzymes (β-lactamases) (Enterobacter cloacae, UniProt P05364). The experiment in a line: biochemical. In kind it is biochemical.
The test system of another assay is ec302 TEM-10. The assay is described as follows: Aztreonam potentiation (MPC@4), strain ec302 TEM-10. The settings on record: minimum BLI concentration inhibiting growth with aztreonam 4 μg/mL; tested up to 40 μg/mL.
The next assay relates to KP1009 CTX-M-15. The experiment in a line: Aztreonam potentiation (MPC@4), strain KP1009 CTX-M-15. The settings on record: minimum BLI concentration inhibiting growth with aztreonam 4 μg/mL; tested up to 40 μg/mL.
The subject of the next assay is AB1054 OXA-23. The assay is described as follows: Meropenem potentiation (MPC@8), strain AB1054 OXA-23. It is filed as cell-based, Acinetobacter baumannii. The settings on record: minimum BLI concentration inhibiting growth with meropenem 8 μg/mL; tested up to 20 μg/mL.
The test system of another assay is EC1010 CMY-6. The experiment in a line: Aztreonam potentiation (MPC@4), strain EC1010 CMY-6. The settings on record: minimum BLI concentration inhibiting growth with aztreonam 4 μg/mL; tested up to 40 μg/mL.
In a further assay the test system is AB1053 OXA-72. The assay is described as follows: Meropenem potentiation (MPC@8), strain AB1053 OXA-72. In kind it is cell-based, Acinetobacter baumannii. The settings on record: minimum BLI concentration inhibiting growth with meropenem 8 μg/mL; tested up to 20 μg/mL.
For assay [7], the system named is KP1004 KPC-2. The experiment in a line: Aztreonam potentiation (MPC@4), strain KP1004 KPC-2. The settings on record: minimum BLI concentration inhibiting growth with aztreonam 4 μg/mL; tested up to 40 μg/mL.
A further assay has as its system KP1005 CTX-M-14. The experiment in a line: Tigemonam potentiation (MPC@4), strain KP1005 CTX-M-14. The settings on record: minimum BLI concentration inhibiting growth with tigemonam 4 μg/mL; tested up to 40 μg/mL.
The subject of a further assay is ECL1002. The experiment in a line: Aztreonam potentiation (MPC@4), strain ECL1002. The settings on record: minimum BLI concentration inhibiting growth with aztreonam 4 μg/mL; tested up to 40 μg/mL.
The next assay deals with KP1010 SHV-12. The experiment in a line: Aztreonam potentiation (MPC@4), strain KP1010 SHV-12. The settings on record: minimum BLI concentration inhibiting growth with aztreonam 4 μg/mL; tested up to 40 μg/mL.
The subject of another assay is KP1086 OXA-48. The experiment in a line: Biapenem potentiation (MPC@1), strain KP1086 OXA-48. In kind it is cell-based. The settings on record: minimum BLI concentration inhibiting growth with biapenem 1 μg/mL; tested up to 40 μg/mL. The method, then:
(§1) Biapenem was present in the test medium at 1 μg/mL. […] Table 3 summarizes the BLI potency of biapenem potentiation (MPC@1) for two strains overexpressing class A (KPC) and class D (OXA-48) carbapenemases. Biapenem MIC for each strain is also shown.

Another assay deals with ec308 SHV-5. The experiment in a line: Aztreonam potentiation (MPC@4), strain ec308 SHV-5. The settings on record: minimum BLI concentration inhibiting growth with aztreonam 4 μg/mL; tested up to 40 μg/mL.
In assay [8] the test system is KP1004 KPC-2. The assay is described as follows: Biapenem potentiation (MPC@1), strain KP1004 KPC-2. It is filed as cell-based. The settings on record: minimum BLI concentration inhibiting growth with biapenem 1 μg/mL; tested up to 40 μg/mL. The method, then: as §1

Read-outs that look alike come from different tables or passages of the source. Some results are limits rather than exact numbers.

T1 sequence (Q9L4P2 whole entry): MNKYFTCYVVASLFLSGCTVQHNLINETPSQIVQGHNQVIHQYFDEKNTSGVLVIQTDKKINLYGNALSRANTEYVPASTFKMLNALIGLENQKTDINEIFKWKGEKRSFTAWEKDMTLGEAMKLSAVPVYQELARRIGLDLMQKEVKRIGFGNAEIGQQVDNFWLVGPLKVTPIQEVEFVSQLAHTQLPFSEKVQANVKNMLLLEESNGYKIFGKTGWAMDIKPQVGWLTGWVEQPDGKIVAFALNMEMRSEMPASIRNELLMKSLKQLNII
purified class A, C and D enzymes (β-lactamases) (Enterobacter cloacae, UniProt P05364), sequence (P05364 21-381): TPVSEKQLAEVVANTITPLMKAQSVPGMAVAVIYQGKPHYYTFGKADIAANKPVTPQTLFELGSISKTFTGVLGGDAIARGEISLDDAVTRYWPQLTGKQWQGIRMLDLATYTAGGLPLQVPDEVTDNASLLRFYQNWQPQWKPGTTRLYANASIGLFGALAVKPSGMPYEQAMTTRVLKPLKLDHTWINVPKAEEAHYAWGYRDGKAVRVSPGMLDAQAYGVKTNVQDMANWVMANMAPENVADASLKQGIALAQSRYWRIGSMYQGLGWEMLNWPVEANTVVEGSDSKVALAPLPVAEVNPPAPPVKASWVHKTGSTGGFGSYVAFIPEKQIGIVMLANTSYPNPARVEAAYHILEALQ
T2 sequence (P24735 whole entry): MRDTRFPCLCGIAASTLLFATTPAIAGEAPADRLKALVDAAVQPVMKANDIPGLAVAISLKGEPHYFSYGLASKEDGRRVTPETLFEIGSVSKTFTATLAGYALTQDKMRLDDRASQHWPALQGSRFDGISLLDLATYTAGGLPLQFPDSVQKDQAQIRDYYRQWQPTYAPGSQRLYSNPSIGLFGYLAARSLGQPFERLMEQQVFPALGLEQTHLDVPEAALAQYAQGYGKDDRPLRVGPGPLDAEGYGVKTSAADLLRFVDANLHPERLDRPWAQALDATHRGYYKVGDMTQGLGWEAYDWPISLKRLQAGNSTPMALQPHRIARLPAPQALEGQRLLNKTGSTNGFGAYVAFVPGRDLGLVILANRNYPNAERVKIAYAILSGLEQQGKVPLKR
purified class A, C and D enzymes (β-lactamases) (Escherichia coli, UniProt Q9L5C7), sequence (Q9L5C7 entry or part of it): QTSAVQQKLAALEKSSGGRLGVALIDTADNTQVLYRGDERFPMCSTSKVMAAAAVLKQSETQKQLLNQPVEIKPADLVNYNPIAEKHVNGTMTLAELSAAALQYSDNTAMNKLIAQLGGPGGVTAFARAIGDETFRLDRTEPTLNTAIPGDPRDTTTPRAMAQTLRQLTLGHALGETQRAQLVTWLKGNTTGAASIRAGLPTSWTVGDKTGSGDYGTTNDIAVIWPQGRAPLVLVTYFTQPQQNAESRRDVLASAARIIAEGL

As to `O=C([O-])c1ccc2c(c1C(=O)[O-])O[B-](O)(O)CC2.[Na+].[Na+].[Na+]` [Compound 53, Trisodium; 4,4-dihydroxy-5-oxa-4-boranuidabicyclo[4.4.0]deca-1(6),7,9-triene-7,8-dicarboxylate], in assay [1], the “Ki (CTX-M-14, NCF), uM” value was “X (X = Ki ≤ 0.1 μM)”. Moreover, in assay [2], the “Ki (OXA-48, NCF), uM” value was “X (X = Ki ≤ 0.1 μM)”. Also, the “Ki (KPC-2, NCF), uM” value in assay [3] is listed as “X (X = Ki ≤ 0.1 μM)”. The inhibitory constant (Ki) in assay [4] and in [5] was below 100 nM in each case. Further, in assay [6], the “Ki (P99, NCF), uM” value is “X (key: X = Ki ≤ 0.1 μM; Y = 0.1 μM < Ki ≤ 1 μM; Z = Ki > 1 μM)”. Also, in the assay with ec302 TEM-10, the “AZT MPC4 TEM-10 ec302” value was “Y (Y = 5 μg/mL < MPC@4 ≤ 20 μg/mL)”. In the assay with KP1009 CTX-M-15, the “AZT MPC4 CTX-M-15 KP1009” value is “Y (Y = 5 μg/mL < MPC@4 ≤ 20 μg/mL)”. For the same compound, the “MPM MPC8 AB1054 OXA-23” value with AB1054 OXA-23 is “X (X = MPC@1 ≤ 5 μg/mL)”. Also, the “AZT MPC4 CMY-6 EC1010” value with EC1010 CMY-6 is given as “X (X = MPC@4 ≤ 5 μg/mL)”. For the same compound, the “MPM MPC8 AB1053 OXA-72” value with AB1053 OXA-72 was “X (X = MPC@1 ≤ 5 μg/mL)”. In addition, in the assay with KP1004 KPC-2 [7], the “AZT MPC4 KPC-2 KP1004” value is recorded as “X (X = MPC@4 ≤ 5 μg/mL)”. The “TIG MPC4 CTX-M-14 KP1005” value in the assay with KP1005 CTX-M-14 is “Z (Z = MPC@4 > 20 μg/mL)”. Also, the “AZT MPC4 ECL1002” value in the assay on ECL1002 is listed as “X (X = MPC@4 ≤ 5 μg/mL)”. For the same compound, the “AZT MPC4 SHV-12 KP1010” value in the assay with KP1010 SHV-12 is listed as “X (X = MPC@4 ≤ 5 μg/mL)”. Also, in the assay on KP1086 OXA-48, the “BPM MPC1 OXA-48 KP1086” value is recorded as “X (X = MPC@1 ≤ 5 μg/mL)”. Moreover, the “AZT MPC4 SHV-5 ec308” value in the assay with ec308 SHV-5 is listed as “Y (Y = 5 μg/mL < MPC@4 ≤ 20 μg/mL)”. Further, the “BPM MPC1 KP1004 KPC-2” value in the assay on KP1004 KPC-2 [8] is “X (X = MPC@1 ≤ 5 μg/mL)”.

As to `COc1c(F)cc2c(c1C(=O)O)OB(O)CC2` [Compound 34, 6-Fluoro-2-hydroxy-7-methoxy-3,4-dihydro-1,2-benzoxaborinine-8-carboxylic acid], the “Ki (CTX-M-14, NCF), uM” value in [1] is “X (X = Ki ≤ 0.1 μM)”. Moreover, in assay [2], the “Ki (OXA-48, NCF), uM” value was “X (X = Ki ≤ 0.1 μM)”. The “Ki (KPC-2, NCF), uM” value in assay [3] is reported as “X (X = Ki ≤ 0.1 μM)”. The Ki (in general, a measure of affinity in units of concentration, obtained from inhibition or displacement) in [4] is below 100 nM; in assay [5] (purified Pa-AmpC, nitrocefin (NCF) as reporter substrate, read-out: Ki (Pa-AmpC, NCF)), below 100 nM. Besides, in assay [6] (purified P99, nitrocefin (NCF) as reporter substrate), the “Ki (P99, NCF), uM” value is given as “X (X = Ki ≤ 0.1 μM)”. The “AZT MPC4 TEM-10 ec302” value with ec302 TEM-10 is on record as “X (X = MPC@4 ≤ 5 μg/mL)”. Also, in the assay on KP1009 CTX-M-15, the “AZT MPC4 CTX-M-15 KP1009” value was “X (X = MPC@4 ≤ 5 μg/mL)”. Further, in the assay on AB1054 OXA-23, the “MPM MPC8 AB1054 OXA-23” value is “X (X = MPC@1 ≤ 5 μg/mL)”. In addition, in the assay with EC1010 CMY-6, the “AZT MPC4 CMY-6 EC1010” value is “X (X = MPC@4 ≤ 5 μg/mL)”. Also, the “MPM MPC8 AB1053 OXA-72” value in the assay on AB1053 OXA-72 is “X (X = MPC@1 ≤ 5 μg/mL)”. Further, in the assay with KP1004 KPC-2 [7], the “AZT MPC4 KPC-2 KP1004” value was “X (X = MPC@4 ≤ 5 μg/mL)”. Further, in the assay with KP1005 CTX-M-14, the “TIG MPC4 CTX-M-14 KP1005” value is recorded as “Z (Z = MPC@4 > 20 μg/mL)”. Besides, the “AZT MPC4 ECL1002” value in the assay with ECL1002 is “X (X = MPC@4 ≤ 5 μg/mL)”. Besides, the “AZT MPC4 SHV-12 KP1010” value in the assay with KP1010 SHV-12 was “X (X = MPC@4 ≤ 5 μg/mL)”. The “BPM MPC1 OXA-48 KP1086” value in the assay with KP1086 OXA-48 is recorded as “X (X = MPC@1 ≤ 5 μg/mL)”. In addition, the “AZT MPC4 SHV-5 ec308” value in the assay with ec308 SHV-5 is reported as “X (X = MPC@4 ≤ 5 μg/mL)”. For the same compound, the “BPM MPC1 KP1004 KPC-2” value in the assay with KP1004 KPC-2 [8] was “X (X = MPC@1 ≤ 5 μg/mL)”.
